# Patent US20170291875A1, “QUINOLONES AS INHIBITORS OF CLASS IV BROMODOMAIN PROTEINS” (UCL BUSINESS PLC, priority 2014, published 2017)
# Columns and labels:
# BRD1 = target: T1, BRD1 (Homo sapiens, UniProt O95696); assay: BROMOscan bromodomain competitive binding assay (DiscoveRx), BRD1; conditions: BROMOscan platform, n = 2
# T1 construct: purchased DiscoveRx (BROMOscan platform); host or cells: E. coli host derived from BL21 (T7 phage)
# T1 sequence (O95696 562-666 limits assumed): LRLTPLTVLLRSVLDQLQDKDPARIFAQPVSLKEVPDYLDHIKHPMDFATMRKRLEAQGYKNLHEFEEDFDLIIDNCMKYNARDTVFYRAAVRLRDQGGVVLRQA
# Experimental: (§1) Compounds were tested using the commercially available BROMOscan™ Platform (DiscoveRx): http://www.discoverx.com/technologies-platforms/competitive-binding-technology/bromoscan-technology-platform/bromoscan-assay-process.
# (§2) Bromodomain assays. T7 phage strains displaying bromodomains were grown in parallel in 24-well blocks in an E. coli host derived from the BL21 strain. E. coli were grown to log-phase and infected with T7 phage from a frozen stock (multiplicity of infection=0.4) and incubated with shaking at 32° C. until lysis (90-150 minutes). The lysates were centrifuged (5,000×g) and filtered (0.2 μm) to remove cell debris. […] The liganded beads were blocked with excess biotin and washed with blocking buffer (SeaBlock (Pierce), 1% BSA, 0.05% Tween 20, 1 mM DTT) to remove unbound ligand and to reduce non-specific phage binding. […] Test compounds were prepared as 1000× stocks in 100% DMSO and subsequently diluted 1:10 in monoethylene glycol (MEG) to create stocks at 100× the screening concentration (resulting stock solution is 10% DMSO/90% MEG). The compounds were then diluted directly into the assays such that the final concentration of DMSO and MEG were 0.1% and 0.9%, respectively. All reactions were performed in polystyrene 96-well plates in a final volume of 0.135 ml. […] The bromodomain concentration in the eluates was measured by qPCR.
# (§3) An 11-point 3-fold serial dilution of each test compound was prepared in 100% DMSO at 1000× final test concentration. This serial is then diluted to 100× in ethylene glycol and subsequently diluted to 1× in the assay (final DMSO concentration=0.1%, Ethylene glycol concentration=0.9%). Most Kds were determined using a compound top concentration=10,000 nM.
# (§4) Binding constants (Kds) were calculated with a standard dose-response curve using the Hill equation: […]
# (§5) The Hill Slope was set to −1. Curves were fitted using a non-linear least square fit with the Levenberg-Marquardt algorithm.
# (§6) BROMOscan™ uses the same assay technology as KINOMEscan™. For a more detailed description of this assay technology, see Fabian et al.12
# BRD9 = target: T2, BRD9 (Homo sapiens, UniProt Q9H8M2); assay: BROMOscan bromodomain competitive binding assay (DiscoveRx), BRD9; conditions: BROMOscan platform, n = 2
# T2 construct: purchased DiscoveRx (BROMOscan platform); host or cells: E. coli host derived from BL21 (T7 phage)
# T2 sequence (Q9H8M2 136-240 limits assumed): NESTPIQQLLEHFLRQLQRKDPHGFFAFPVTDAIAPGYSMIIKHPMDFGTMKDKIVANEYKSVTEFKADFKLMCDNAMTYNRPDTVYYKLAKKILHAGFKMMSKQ
# Experimental: as §1, §2, §3, §4, §5, §6
# BRPF3 = target: T3, BRPF3 (Homo sapiens, UniProt Q9ULD4); assay: BROMOscan bromodomain competitive binding assay (DiscoveRx), BRPF3; conditions: BROMOscan platform, n = 2
# T3 construct: purchased DiscoveRx (BROMOscan platform); host or cells: E. coli host derived from BL21 (T7 phage)
# T3 sequence (Q9ULD4 589-693 limits assumed): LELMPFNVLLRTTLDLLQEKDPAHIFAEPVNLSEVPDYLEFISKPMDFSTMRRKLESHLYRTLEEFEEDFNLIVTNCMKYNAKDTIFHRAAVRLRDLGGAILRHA
# Experimental: as §1, §2, §3, §4, §5, §6
# BRPF1B = target: T4, BRPF1B (Homo sapiens, UniProt P55201); assay: BROMOscan bromodomain competitive binding assay (DiscoveRx), BRPF1B; conditions: BROMOscan platform, n = 2 unless cell says n = 4
# T4 construct: purchased DiscoveRx (BROMOscan platform); host or cells: E. coli host derived from BL21 (T7 phage)
# T4 sequence (P55201 628-732 limits assumed): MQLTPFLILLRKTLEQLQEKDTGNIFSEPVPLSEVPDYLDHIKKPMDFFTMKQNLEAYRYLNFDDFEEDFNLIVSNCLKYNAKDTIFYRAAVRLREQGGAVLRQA
# Experimental: as §1, §2, §3, §4, §5, §6
# BRD7 = target: T5, BRD7 (Homo sapiens, UniProt Q9NPI1); assay: BROMOscan bromodomain competitive binding assay (DiscoveRx), BRD7; conditions: BROMOscan platform, n = 2
# T5 construct: purchased DiscoveRx (BROMOscan platform); host or cells: E. coli host derived from BL21 (T7 phage)
# T5 sequence (Q9NPI1 131-235 limits assumed): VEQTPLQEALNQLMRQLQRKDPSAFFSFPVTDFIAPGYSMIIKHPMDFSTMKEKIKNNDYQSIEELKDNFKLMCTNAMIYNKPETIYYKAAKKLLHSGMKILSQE
# Experimental: as §1
# Bromodomain assays. T7 phage strains displaying bromodomains were grown in parallel in 24-well blocks in an E. coli host derived from the BL21 strain. E. coli were grown to log-phase and infected with T7 phage from a frozen stock (multiplicity of infection=0.4) and incubated with shaking at 32° C. until lysis (90-150 minutes). The lysates were centrifuged (5,000×g) and filtered (0.2 μm) to remove cell debris. […] The liganded beads were blocked with excess biotin and washed with blocking buffer (SeaBlock (Pierce), 1% BSA, 0.05% Tween 20, 1 mM DTT) to remove unbound ligand and to reduce non-specific phage binding. […] The bromodomain concentration in the eluates was measured by qPCR.
# An 11-point 3-fold serial dilution of each test compound was prepared in 100% DMSO at 1000× final test concentration. […] Most Kds were determined using a compound top concentration=10,000 nM.
# as §4
Structure (SMILES),Kd (BRD1) [nM],Kd (BRD9) [nM],Kd (BRPF3) [nM],Kd (BRPF1B) [nM],Kd (BRD7) [nM]
"Cn1c(=O)ccc2cc(NS(=O)(=O)c3ccc(C#N)cc3)ccc21 [Compound 4, 4-cyano-N-(1-methyl-2-oxo-1,2-dihydroquinolin-6-yl)benzenesulfonamide]",200,910,1000,43,–
"COc1cc2c(ccc(=O)n2C)cc1NS(=O)(=O)c1ccc(C#N)cc1 [Compound 11, 4-cyano-N-(7-methoxy-1-methyl-2-oxo-1,2-dihydroquinolin-6-yl)benzenesulfonamide]",520,2700,2200,53,–
"Cc1cc2cc(NS(=O)(=O)c3ccc(C#N)cc3)ccc2n(C)c1=O [Compound 19, 4-cyano-N-(1,3-dimethyl-2-oxo-1,2-dihydroquinolin-6-yl)benzenesulfonamide]",48,310,260,7.9,82
"COc1cc2c(cc1NS(=O)(=O)c1ccc(C#N)cc1OC)cc(C)c(=O)n2C [Compound 27, 4-cyano-2-methoxy-N-(7-methoxy-1,3-dimethyl-2-oxo-1,2-dihydroquinolin-6-yl)benzenesulfonamide]",80,170,190,12,–
"COc1cc2c(cc1NS(=O)(=O)c1ccc(C#N)cc1)c(C)cc(=O)n2C [Compound 33, 4-cyano-N-(7-methoxy-1,4-dimethyl-2-oxo-1,2-dihydroquinolin-6-yl)benzenesulfonamide]",1800,890,9300,60,21000
